# Results published in US9388215B2, “Compositions and methods of using islet neogenesis peptides and analogs thereof” (SHENZHEN HIGHTIDE BIOPHARMACEUTICAL, LTD., priority 2013, dated 2016).
# Experiments:
# normal C57BL/6J mice [1] = assay: Induction of extra islet insulin positive β cell clusters (EIC) in normal C57BL/6J mice; format: in vivo, mouse
# Protocol: After a 1-week acclimation, female C57BL/6J mice were randomly divided into 6 groups (n=5 per group). The control group received 10 mL/kg sterile normal saline via subcutaneous injection for 10 consecutive days. The other five groups received INGAP-PP (Peptide 1) or INGAP-PP analogs Peptide 12, Peptide 16, Peptide 29 or Peptide 31 at a dose of 50 mg/kg or 5 mg/kg per day, respectively, for the same period. On day 11, the pancreas was removed from each animal, cleared of fat and lymph nodes, weighed, and fixed in 10% neutral buffered formalin (NBF) for no longer than 24 hours before processing for morphometric analysis.
# Immunohistochemistry analysis was used to assess the islet neogenic activities of peptides by measuring the number and area of extra islet insulin positive β cell clusters (EIC) of pancreatic tissues harvested from each individual group post 10 day treatment. EIC is indicative of islet neogenesis, as previously described by Lipsett and Finegood (Diabetes 51:1834-1841 (2002)).
# [2] = Peptide stability in culture medium (F-12K, 37° C., HPLC); format: physicochemical; details: F-12K medium, 0.25 mg/mL, 0-72 hours, FIG. 2, FIG. 11
# Protocol: To determine the stability of peptides in culture medium, a certain amount of selected peptides was accurately weighed and dissolved in distilled water to 5 mg/mL as a stock solution. The stock solution was diluted to 0.25 mg/mL with F-12K medium (Gibco-BRL, Gaithersburg, Md., USA) as working solution. A volume of 100 μL of each working solution was transferred into individual sample vials. The sample vials were incubated in a 37° C. incubator for 0, 24, 48 and 72 hours before being analyzed and quantitated by HPLC. […]
# [3] = system: STZ induced diabetic mice; assay: Efficacy in streptozotocin (STZ) induced diabetic mice model; format: in vivo, mouse; details: 5 mg/kg or 25 mg/kg for 20 days
# Protocol: After acclimatization in the animal facility for one week, 6-8 weeks old C57BL/6J mice were administered low dose STZ at 40 mg/kg in citrate buffer for 5 consecutive days to establish a T1D animal model. Mice with blood glucose greater than 16.7 mmol/L at 5 days post last STZ injection were included in the study. These mice were then treated with INGAP-PP (Peptide 1) or Peptide 7 at the doses of 5 mg/kg (2.5 mg/kg, bid (twice a day)) or 25 mg/kg (12.5 mg/kg, bid) for 20 days before sacrifices. Two additional groups of diabetic mice were administered either saline or a peptide (Peptide 3) composed of a scrambled sequence of amino acids from Peptide 1 as control groups. Blood glucose and insulin levels were measured, and 20 days post the last dosing of test agents, an oral glucose tolerance test (OGTT) was performed in 6 hour fasted animals to determine the effect of Peptide 1 and Peptide 7. Blood samples obtained from the tail cut for glucose determination were detected with an ACCU-CHEK™ glucometer (Roche, ACCU-CHEK® Active), and insulin levels were determined with Rat/Mouse Insulin Elisa kit (Millipore, Billerica, Mass. USA). For the OGTT, after the measurement of the basal glucose concentration (T=−30 min), mice received an oral glucose challenge at 2 g/kg and glucose values were determined by glucometer at 0, 15, 30, 60, 90 and 120 min.
# normal C57BL/6J mice [4] = assay: Induction of small β-cell clusters in normal C57BL/6J mice (islet size distribution); format: in vivo, mouse
# Protocol: After a 1-week acclimation, C57BL/6J female mice were randomly divided into 4 groups. The two control groups received either 10 mL/kg sterile normal saline (n=4) or scrambled peptide (Peptide 3, 25 mg/kg) (n=5) via subcutaneous injection for 10 days. The other two groups received INGAP-PP (Peptide 1) or INGAP-PP analog Peptide 7 at a dose of 25 mg/kg per day respectively (n=7 per group) for the same period. Body weight and 6 hour fasting blood glucose were measured before treatment and after the last dosing of treatment. Plasma and pancreatic insulin were also measured at the end of the study. On day 11, the pancreas was removed from each animal, cleared of fat and lymph nodes, weighed, and fixed in 10% neutral buffered formalin (NBF) for no longer than 24 hours before processing for morphometric analysis.
# Immunohistochemistry analysis was used to determine pancreatic islet size distribution.
substance,measurement,setting,value
"Ac-IGLHDPSHGTLPNGS-NH2 [Peptide 31, Ac-IGLHDPSHGTLPNGS-NH2]",islet neogenesis efficacy relative to INGAP-PP,"normal C57BL/6J mice [1]; analog 5 mg/kg vs INGAP-PP 50 mg/kg, 10 days",comparable or improved efficacy was achieved at a dose one tenth of INGAP-PP
same,number of extra islet cluster (EIC),"normal C57BL/6J mice [1]; female C57BL/6J mice, 10 days sc, INGAP-PP 50 mg/kg, analogs 5 mg/kg per day, FIG. 9A",statistically greater than that of INGAP-PP (Peptide 1) (50 mg/kg) treated group
same,total area of EIC,"normal C57BL/6J mice [1]; female C57BL/6J mice, 10 days sc, INGAP-PP 50 mg/kg, analogs 5 mg/kg per day, FIG. 9B",statistically greater than that of INGAP-PP (Peptide 1) (50 mg/kg) treated group
"Ac-IGLHDPSHGTLPNGS-OH [Peptide 16, Ac-IGLHDPSHGTLPNGS-OH]",stability in culture medium,[2],significantly more stable than INGAP-PP peptide in culture medium
"H-IGLHDPSHGTLPNGS-OH [Peptide 1, H-IGLHDPSHGTLPNGS-OH, reference compound]",effect on body weight or pancreas weight,[3],did not affect body weight or pancreas weight
same,"number of islets, islet size (Log [μm^2]) ranging from 2.1 to 0.7","normal C57BL/6J mice [4]; normal female C57BL/6J mice, 25 mg/kg per day, 10 days, versus naive/control group, FIG. 7",only observed in islet size of 2.1
same,"effect on body weight, blood glucose, plasma insulin, pancreas insulin, pancreas weight","normal C57BL/6J mice [4]; normal mice, 25 mg/kg per day sc for 10 days, compared to saline group","did not affect body weight, blood glucose, plasma insulin, pancreas insulin, or pancreas weight"
